From ChEMBL document CHEMBL2429832, “N-substituted 8-aminopentacyclo[5.4.0.0(2,6).0(3,10).0(5,9)]undecanes as σ receptor ligands with potential neuroprotective effects” (Bioorg Med Chem, 2013)
Blank lines part the entries; values can stand above or below the molecule they belong to. Active and inactive are the calls of the source. The calls are words filed in the database; no cut-off is given here.

How the values were obtained:
[1] = organism: Homo sapiens; experiment: Inhibition of NMDA receptor PCP binding site (unknown origin) at 10 uM by PDSP assay relative to control
[2] = target: Delta-type opioid receptor (Homo sapiens, UniProt P41143); experiment: Inhibition of delta opioid receptor (unknown origin) by PDSP assay
[3] = target: Kappa-type opioid receptor (Homo sapiens, UniProt P41145); experiment: Inhibition of kappa opioid receptor (unknown origin) by PDSP assay
Sequence of Kappa-type opioid receptor (P41145 whole entry): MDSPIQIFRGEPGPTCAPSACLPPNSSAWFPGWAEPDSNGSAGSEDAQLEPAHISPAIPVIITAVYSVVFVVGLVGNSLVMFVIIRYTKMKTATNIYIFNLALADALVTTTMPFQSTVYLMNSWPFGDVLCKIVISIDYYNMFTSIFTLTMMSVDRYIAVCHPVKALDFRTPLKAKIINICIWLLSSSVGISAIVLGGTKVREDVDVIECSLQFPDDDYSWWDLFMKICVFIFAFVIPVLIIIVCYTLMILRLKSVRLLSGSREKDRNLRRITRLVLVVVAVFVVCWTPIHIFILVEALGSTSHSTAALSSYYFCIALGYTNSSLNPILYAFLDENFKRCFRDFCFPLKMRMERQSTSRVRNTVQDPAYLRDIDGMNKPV

[4] = target: Mu-type opioid receptor (Homo sapiens, UniProt P35372); experiment: Inhibition of mu opioid receptor (unknown origin) by PDSP assay
Sequence of Mu-type opioid receptor (P35372 whole entry): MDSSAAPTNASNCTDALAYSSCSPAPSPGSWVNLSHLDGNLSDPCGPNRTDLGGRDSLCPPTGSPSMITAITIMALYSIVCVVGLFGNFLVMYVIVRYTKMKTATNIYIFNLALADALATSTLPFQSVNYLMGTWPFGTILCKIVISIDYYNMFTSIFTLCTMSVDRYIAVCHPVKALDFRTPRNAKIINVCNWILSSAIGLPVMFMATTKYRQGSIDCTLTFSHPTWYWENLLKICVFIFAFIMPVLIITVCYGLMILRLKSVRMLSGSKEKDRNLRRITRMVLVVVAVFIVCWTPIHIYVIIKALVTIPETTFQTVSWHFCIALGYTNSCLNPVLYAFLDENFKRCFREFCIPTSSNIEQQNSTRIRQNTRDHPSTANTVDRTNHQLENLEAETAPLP

[5] = target: Histamine H3 receptor (Homo sapiens, UniProt Q9Y5N1); experiment: Inhibition of histamine H3 receptor (unknown origin) by PDSP assay
Sequence of Histamine H3 receptor (Q9Y5N1 whole entry): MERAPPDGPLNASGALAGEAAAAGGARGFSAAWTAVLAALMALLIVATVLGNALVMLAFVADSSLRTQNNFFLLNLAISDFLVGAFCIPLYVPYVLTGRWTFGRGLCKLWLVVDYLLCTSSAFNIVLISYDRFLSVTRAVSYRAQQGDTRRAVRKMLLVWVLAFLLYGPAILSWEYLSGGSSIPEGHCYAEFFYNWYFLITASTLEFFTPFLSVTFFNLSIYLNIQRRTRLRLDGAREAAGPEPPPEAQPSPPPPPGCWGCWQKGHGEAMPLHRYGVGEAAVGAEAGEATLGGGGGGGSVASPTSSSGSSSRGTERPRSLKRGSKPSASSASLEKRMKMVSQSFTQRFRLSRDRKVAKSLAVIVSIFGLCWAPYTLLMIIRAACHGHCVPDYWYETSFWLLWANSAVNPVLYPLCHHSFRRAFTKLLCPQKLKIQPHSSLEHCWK

[6] = target: Sodium-dependent noradrenaline transporter (Homo sapiens, UniProt P23975); experiment: Displacement of [3H]-nisoxetine from human NET expressed in HEK cell membranes; design: species or system HEK293
Sequence of Sodium-dependent noradrenaline transporter (P23975 whole entry): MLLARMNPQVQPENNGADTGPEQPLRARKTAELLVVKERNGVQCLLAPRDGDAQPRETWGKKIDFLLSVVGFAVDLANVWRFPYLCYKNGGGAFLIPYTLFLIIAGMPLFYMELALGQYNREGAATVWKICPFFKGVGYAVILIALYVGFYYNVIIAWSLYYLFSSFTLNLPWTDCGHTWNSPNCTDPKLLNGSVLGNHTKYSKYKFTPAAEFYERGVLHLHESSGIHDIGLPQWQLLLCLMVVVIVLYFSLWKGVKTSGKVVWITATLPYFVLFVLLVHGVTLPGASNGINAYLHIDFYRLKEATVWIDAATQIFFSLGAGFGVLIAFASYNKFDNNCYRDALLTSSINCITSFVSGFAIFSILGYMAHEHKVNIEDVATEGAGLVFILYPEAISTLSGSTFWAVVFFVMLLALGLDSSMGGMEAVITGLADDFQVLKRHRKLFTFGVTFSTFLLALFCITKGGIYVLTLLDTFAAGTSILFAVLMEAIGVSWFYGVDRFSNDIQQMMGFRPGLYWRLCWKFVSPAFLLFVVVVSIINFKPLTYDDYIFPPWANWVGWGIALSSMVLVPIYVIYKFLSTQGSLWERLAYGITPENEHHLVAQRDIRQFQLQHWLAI

[7] = target: T1, Alpha-2A adrenergic receptor (Homo sapiens, UniProt P08913); experiment: Inhibition of adrenergic alpha2A receptor (unknown origin) by PDSP assay
T1 sequence (P08913 whole entry): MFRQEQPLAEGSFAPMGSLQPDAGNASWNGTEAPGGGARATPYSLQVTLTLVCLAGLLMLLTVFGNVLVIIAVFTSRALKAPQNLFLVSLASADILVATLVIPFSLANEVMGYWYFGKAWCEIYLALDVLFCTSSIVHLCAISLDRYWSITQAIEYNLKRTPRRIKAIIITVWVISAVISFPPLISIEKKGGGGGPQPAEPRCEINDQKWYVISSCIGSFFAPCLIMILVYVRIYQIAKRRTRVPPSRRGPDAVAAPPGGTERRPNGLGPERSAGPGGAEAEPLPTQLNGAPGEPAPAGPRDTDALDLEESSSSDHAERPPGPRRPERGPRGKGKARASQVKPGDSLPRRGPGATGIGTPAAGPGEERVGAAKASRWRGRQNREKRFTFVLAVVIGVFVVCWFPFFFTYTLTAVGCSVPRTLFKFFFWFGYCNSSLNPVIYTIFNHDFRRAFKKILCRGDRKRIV

[8] = test system: RAW264.7; experiment: Neuroprotective activity in mouse RAW264.7 cells assessed as inhibition of LPS-stimulated nitric oxide release at 30 uM after 20 to 24 hrs by Griess assay relative to control; assay type: functional
[9] = target: 5-hydroxytryptamine receptor 2A (Homo sapiens, UniProt P28223); experiment: Inhibition of 5-HT2A receptor (unknown origin) by PDSP assay
Sequence of 5-hydroxytryptamine receptor 2A (P28223 whole entry): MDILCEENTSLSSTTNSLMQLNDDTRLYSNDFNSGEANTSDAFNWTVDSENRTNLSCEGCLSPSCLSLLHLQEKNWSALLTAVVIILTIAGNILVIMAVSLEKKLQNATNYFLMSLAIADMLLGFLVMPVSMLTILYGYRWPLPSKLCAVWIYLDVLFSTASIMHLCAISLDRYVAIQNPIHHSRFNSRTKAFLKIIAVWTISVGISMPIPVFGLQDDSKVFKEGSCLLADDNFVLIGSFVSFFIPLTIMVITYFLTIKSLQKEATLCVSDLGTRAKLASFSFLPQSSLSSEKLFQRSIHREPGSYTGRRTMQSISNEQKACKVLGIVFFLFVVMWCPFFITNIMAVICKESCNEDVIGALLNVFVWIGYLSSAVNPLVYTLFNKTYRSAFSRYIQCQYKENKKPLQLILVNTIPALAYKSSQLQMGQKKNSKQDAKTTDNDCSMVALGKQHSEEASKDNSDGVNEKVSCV

[10] = target: 5-hydroxytryptamine receptor 5A (Homo sapiens, UniProt P47898); experiment: Inhibition of 5-HT5A receptor (unknown origin) by PDSP assay
Sequence of 5-hydroxytryptamine receptor 5A (P47898 whole entry): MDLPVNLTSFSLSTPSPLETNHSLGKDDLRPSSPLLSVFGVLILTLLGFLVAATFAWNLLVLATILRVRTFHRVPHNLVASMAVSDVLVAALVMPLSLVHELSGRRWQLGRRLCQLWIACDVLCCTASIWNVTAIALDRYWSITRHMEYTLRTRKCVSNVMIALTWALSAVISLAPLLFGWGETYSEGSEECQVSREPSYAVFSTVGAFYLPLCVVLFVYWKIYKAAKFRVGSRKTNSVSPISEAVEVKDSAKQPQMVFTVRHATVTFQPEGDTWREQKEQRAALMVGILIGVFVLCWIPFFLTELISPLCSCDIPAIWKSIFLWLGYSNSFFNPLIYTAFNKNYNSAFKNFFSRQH

[11] = target: 5-hydroxytryptamine receptor 6 (Homo sapiens, UniProt P50406); experiment: Inhibition of 5-HT6 receptor (unknown origin) by PDSP assay
Sequence of 5-hydroxytryptamine receptor 6 (P50406 whole entry): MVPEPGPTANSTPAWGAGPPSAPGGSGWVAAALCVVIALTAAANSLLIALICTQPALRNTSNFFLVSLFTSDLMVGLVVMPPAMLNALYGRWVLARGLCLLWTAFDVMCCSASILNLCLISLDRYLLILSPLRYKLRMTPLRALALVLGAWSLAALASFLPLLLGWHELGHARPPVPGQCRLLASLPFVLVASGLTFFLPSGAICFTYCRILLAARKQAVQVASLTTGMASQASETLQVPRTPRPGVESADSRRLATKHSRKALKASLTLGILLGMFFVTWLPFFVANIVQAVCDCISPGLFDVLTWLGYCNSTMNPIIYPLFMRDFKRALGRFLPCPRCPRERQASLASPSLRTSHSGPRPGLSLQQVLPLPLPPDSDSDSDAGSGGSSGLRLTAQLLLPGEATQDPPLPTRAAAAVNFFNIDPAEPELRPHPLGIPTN

[12] = target: Histamine H4 receptor (Homo sapiens, UniProt Q9H3N8); experiment: Inhibition of histamine H4 receptor (unknown origin) by PDSP assay
[13] = target: D(4) dopamine receptor (Homo sapiens, UniProt P21917); experiment: Inhibition of dopamine D4 receptor (unknown origin) by PDSP assay
Sequence of D(4) dopamine receptor (P21917 whole entry): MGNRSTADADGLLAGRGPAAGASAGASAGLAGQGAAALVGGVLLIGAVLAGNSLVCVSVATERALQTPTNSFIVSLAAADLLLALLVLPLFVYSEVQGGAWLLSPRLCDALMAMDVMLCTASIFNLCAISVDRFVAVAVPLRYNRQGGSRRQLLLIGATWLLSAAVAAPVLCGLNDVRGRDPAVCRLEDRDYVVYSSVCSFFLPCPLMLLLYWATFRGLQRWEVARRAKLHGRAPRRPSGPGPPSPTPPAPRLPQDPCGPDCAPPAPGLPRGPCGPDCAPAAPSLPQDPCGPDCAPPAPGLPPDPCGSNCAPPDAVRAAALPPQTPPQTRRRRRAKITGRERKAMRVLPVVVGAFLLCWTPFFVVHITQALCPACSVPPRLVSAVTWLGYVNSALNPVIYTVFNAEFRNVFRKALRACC

[14] = test system: RAW264.7; experiment: Neuroprotective activity in mouse RAW264.7 cells assessed as inhibition of LPS-stimulated nitric oxide release at 75 uM after 20 to 24 hrs by Griess assay relative to control; assay type: functional
[15] = target: 5-hydroxytryptamine receptor 7 (Homo sapiens, UniProt P34969); experiment: Inhibition of 5-HT7 receptor (unknown origin) by PDSP assay
[16] = target: 5-hydroxytryptamine receptor 2B (Homo sapiens, UniProt P41595); experiment: Inhibition of 5-HT2B receptor (unknown origin) by PDSP assay
Sequence of 5-hydroxytryptamine receptor 2B (P41595 whole entry): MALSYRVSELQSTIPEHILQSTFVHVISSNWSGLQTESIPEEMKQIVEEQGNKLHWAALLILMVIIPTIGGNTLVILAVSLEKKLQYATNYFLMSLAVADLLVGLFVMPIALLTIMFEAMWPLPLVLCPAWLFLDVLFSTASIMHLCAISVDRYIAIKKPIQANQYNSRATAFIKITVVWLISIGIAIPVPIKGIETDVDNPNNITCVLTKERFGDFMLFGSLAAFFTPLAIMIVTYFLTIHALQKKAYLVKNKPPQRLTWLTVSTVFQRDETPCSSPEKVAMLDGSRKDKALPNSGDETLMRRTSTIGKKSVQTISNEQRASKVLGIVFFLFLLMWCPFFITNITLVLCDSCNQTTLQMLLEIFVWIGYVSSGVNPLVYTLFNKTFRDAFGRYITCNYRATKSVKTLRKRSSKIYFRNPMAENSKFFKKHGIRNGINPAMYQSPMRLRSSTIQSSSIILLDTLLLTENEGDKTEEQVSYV

[17] = target: 5-hydroxytryptamine receptor 1B (Homo sapiens, UniProt P28222); experiment: Inhibition of 5-HT1B receptor (unknown origin) by PDSP assay
Sequence of 5-hydroxytryptamine receptor 1B (P28222 whole entry): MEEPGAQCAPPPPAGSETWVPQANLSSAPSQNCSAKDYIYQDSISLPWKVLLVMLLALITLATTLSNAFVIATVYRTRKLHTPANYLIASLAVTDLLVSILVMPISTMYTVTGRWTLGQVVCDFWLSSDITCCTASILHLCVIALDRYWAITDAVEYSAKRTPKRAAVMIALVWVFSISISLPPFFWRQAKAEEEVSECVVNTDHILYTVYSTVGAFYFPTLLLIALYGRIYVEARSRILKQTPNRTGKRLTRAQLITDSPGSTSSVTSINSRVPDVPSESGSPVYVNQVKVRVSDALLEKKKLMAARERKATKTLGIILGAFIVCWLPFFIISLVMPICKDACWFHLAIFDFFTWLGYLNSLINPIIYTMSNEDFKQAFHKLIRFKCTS

[18] = test system: RAW264.7; experiment: Neuroprotective activity in mouse RAW264.7 cells assessed as inhibition of LPS-stimulated nitric oxide release at 100 uM after 20 to 24 hrs by Griess assay relative to control; assay type: functional
[19] = test system: RAW264.7; experiment: Neuroprotective activity in mouse RAW264.7 cells assessed as inhibition of LPS-stimulated nitric oxide release up to 100 uM after 20 to 24 hrs by Griess assay; assay type: functional, cell-based
[20] = Inhibition of Ca2+ channel (unknown origin) by PDSP assay; design: species or system Homo sapiens
[21] = target: 5-hydroxytryptamine receptor 1A (Homo sapiens, UniProt P08908); experiment: Inhibition of 5-HT1A receptor (unknown origin) by PDSP assay
Sequence of 5-hydroxytryptamine receptor 1A (P08908 whole entry): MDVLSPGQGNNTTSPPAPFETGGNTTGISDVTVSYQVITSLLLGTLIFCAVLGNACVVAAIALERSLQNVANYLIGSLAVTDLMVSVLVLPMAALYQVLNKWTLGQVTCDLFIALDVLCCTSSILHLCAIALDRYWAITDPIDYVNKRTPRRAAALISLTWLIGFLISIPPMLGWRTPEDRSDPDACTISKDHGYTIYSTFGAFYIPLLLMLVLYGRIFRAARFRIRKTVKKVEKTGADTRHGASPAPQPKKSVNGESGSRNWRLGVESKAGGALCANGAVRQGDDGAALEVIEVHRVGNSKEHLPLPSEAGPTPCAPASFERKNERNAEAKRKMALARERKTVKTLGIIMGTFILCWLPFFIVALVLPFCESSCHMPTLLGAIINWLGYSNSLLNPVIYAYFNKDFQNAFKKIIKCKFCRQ

[22] = Inhibition of rat brain BZP receptor by PDSP assay

Structure (SMILES): C1CCC(CN[C@H]2C3C4CC5C6C4CC3C6C52)CC1 (some centres not stated)
inhibition at 30 µM [8]: 10.2%

Structure (SMILES): CN(CCCc1cccc(F)c1)[C@H]1C2C3CC4C5C3CC2C5C41 (some centres not stated)
Ki [9]: > 10 µM

Structure (SMILES): CN(Cc1cccnc1)[C@H]1C2C3CC4C5C3CC2C5C41 (some centres not stated)
Ki [3]: 1.66 µM

Structure (SMILES): CN(Cc1ccccc1)[C@H]1C2C3CC4C5C3CC2C5C41 (some centres not stated)
Ki [9]: > 10 µM

Structure (SMILES): CN(CC1CCCCC1)[C@H]1C2C3CC4C5C3CC2C5C41 (some centres not stated)
inhibition at 30 µM [8]: 0%
inhibition at 75 µM [14]: 88.3%

Structure (SMILES): CN(CCc1ccccc1)[C@H]1C2C3CC4C5C3CC2C5C41 (some centres not stated)
Ki [15]: 4.42 µM
Ki [16]: 2.71 µM
Ki [9]: 1.73 µM

Structure (SMILES): c1ccc(CCN[C@H]2C3C4CC5C6C4CC3C6C52)cc1 (some centres not stated)
Ki [17]: > 10 µM
inhibition at 30 µM [8]: 7%
Ki [13]: > 10 µM
inhibition at 100 µM [18]: 17.5%
Ki [9]: > 10 µM
Ki [7]: > 10 µM

Structure (SMILES): c1cc2c(cc1CN[C@H]1C3C4CC5C6C4CC3C6C51)OCO2 (some centres not stated)
Ki [10]: 6.06 µM
Ki [6]: 7.35 µM

Structure (SMILES): CN(Cc1ccc2c(c1)OCO2)[C@H]1C2C3CC4C5C3CC2C5C41 (some centres not stated)
Ki [22]: 4.88 µM

Further lines, with some results ahead:

inhibition [1]: < 50%
Structure (SMILES): CN(Cc1ccccc1)[C@H]1C2C3CC4C2C(=O)C2C4C3C21 (some centres not stated)

Ki [2]: 2.79 µM
Ki [3]: 0.934 µM
Ki [4]: 2.12 µM
Structure (SMILES): CN(CCc1ccccn1)[C@H]1C2C3CC4C5C3CC2C5C41 (some centres not stated)

Ki [5]: 2.05 µM
Ki [6]: 8.53 µM
Ki [7]: > 10 µM
Structure (SMILES): CN(CCCc1cccc(F)c1)[C@H]1C2C3CC4C2C(=O)C2C4C3C21 (some centres not stated)

Ki [10]: 7.5 µM
Ki [3]: 0.809 µM
Structure (SMILES): C1C2C3CC4C2C2C1C3[C@H](NCC13C5C6C7C5C1C7C63)C42 (some centres not stated)
inhibition at 30 µM [8]: 18.1%

Ki [11]: > 10 µM
Ki [7]: 5.21 µM
Structure (SMILES): COc1ccc(CN[C@H]2C3C4CC5C6C4CC3C6C52)cc1OC (some centres not stated)

Ki [7]: > 10 µM
Structure (SMILES): COc1ccc(CN(C)[C@H]2C3C4CC5C3C(=O)C3C5C4C32)cc1OC (some centres not stated)

Ki [12]: > 10 µM
Ki [11]: > 10 µM
Ki [13]: > 10 µM
Structure (SMILES): c1ccc(CCN[C@H]2C3C4CC5C6C4CC3C6C52)nc1 (some centres not stated)

Ki [3]: 4.86 µM
Ki [20]: 3.62 µM
Structure (SMILES): c1ccc(CN[C@H]2C3C4CC5C6C4CC3C6C52)cc1 (some centres not stated)
inhibition [19]: inactive

Ki [21]: > 10 µM
Structure (SMILES): CN(Cc1cccc(F)c1)[C@H]1C2C3CC4C2C(=O)C2C4C3C21 (some centres not stated)

Ki [3]: 1.98 µM
Ki [16]: 1.96 µM
Ki [9]: 3.06 µM
Structure (SMILES): COc1cc(CN[C@H]2C3C4CC5C6C4CC3C6C52)cc(OC)c1OC (some centres not stated)
inhibition [19]: inactive
